No end group written: not given here.
Experiments:
[1] = molecular target: T1, melanocortin receptor 2 (MC2R) (Homo sapiens, UniProt Q01718); assay: Activity in vitro: calcium ion signal in CHO-K1 cells expressing MC2R; type: cell-based; details: for Binding ability to MC2R and biological activity (in words) / Bottom / HillSlope / Top / EC50: CHO-K1 cells expressing MC2R; for Bottom / HillSlope / Top: curve fit; for Bottom / HillSlope / Top / EC50: calcium ion signal; for EC50: read-out: EC50 (half inhibitory concentration)
T1 construct: expressed in transfected cells; host or cells: CHO-K1
T1 sequence (Q01718 whole entry, species assumed): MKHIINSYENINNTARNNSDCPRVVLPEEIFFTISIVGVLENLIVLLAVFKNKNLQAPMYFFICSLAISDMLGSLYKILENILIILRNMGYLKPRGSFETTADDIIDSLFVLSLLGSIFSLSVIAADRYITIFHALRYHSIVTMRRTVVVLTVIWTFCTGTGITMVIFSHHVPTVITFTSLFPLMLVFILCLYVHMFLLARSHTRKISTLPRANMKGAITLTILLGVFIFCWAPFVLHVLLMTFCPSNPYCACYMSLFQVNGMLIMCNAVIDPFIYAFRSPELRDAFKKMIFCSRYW
T1 sequence (Q8TCY5 whole entry partner, species assumed): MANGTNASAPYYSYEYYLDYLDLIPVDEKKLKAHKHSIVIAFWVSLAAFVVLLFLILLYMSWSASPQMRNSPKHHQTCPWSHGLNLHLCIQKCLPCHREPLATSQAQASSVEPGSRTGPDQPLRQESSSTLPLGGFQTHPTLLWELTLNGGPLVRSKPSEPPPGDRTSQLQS
Procedure: ACTH was a receptor agonist of melanocortin receptor 2 (MC2R). The combination of ACTH and MC2R could stimulate the signal pathway of the downstream and change the signal factors such as calcium ions and cAMP. The binding ability of ACTH and MC2R was determined by detecting calcium ion signals, and then the cell activity of ACTH in vitro was judged.
The samples in example 8 and example 10 were taken for activity study in vitro. CHO-K1 cells expressing MC2R were cultured in 10 cm vessels and stored at 37° C. and 5% CO2.

[2] = Study of stability, packed samples stored at 2-8° C. for 6 months; type: physicochemical; details: for Conclusion: Character / Conclusion: Moisture / Conclusion: Polymer / Conclusion: Related substances (maximum single impurity) / Conclusion: The purity of chromatographic: up to 6 months
Procedure: The samples prepared in example 8 were packed in double-layer medical low-density polyethylene bags and a layer of aluminum-plastic composite bags and stored at 2-8° C. for evaluation at 1, 2, 3 and 6 months respectively.
The samples prepared in example 9 were packed in double-layer medical low-density polyethylene bags and a layer of aluminum-plastic composite bags and stored at 2-8° C. for evaluation at 1, 2, 3 and 6 months respectively.

[3] = system: infantile spasticity (IS) rat model; assay: Incubation period of spasticity in infantile spasticity (IS) rat model (betamethasone/NMDA); type: in vivo, Sprague Dawley (SD) rats
Procedure: (1) Method: To investigate the effect of SEQ ID NO.4 on the incubation period of spasticity in infantile spasticity (IS) rat model.
Incubation period: Time from NMDA injection to onset of spasticity (time is measured in units of seconds).
Sham group: Sprague Dawley (SD) rats were intraperitoneally injected with saline (10 mL/kg each time) at 9:00 am and 19:00 pm respectively on the 15th day of pregnancy, and the neonatal rats (n=12) were intraperitoneally injected with saline of the same volume as the drug group on the 15th day after birth. Model group (IS group): SD rats were intraperitoneally injected with betamethasone (0.4 mg/kg each time) at 9:00 am and 19:00 pm respectively on the 15th day of pregnancy. The neonatal rats (n=12) were intraperitoneally injected with N-methyl-D-aspartic acid (NMDA, 15 mg/kg) at 15:30 pm on the 15th day after birth to establish infant spasticity (neonatal spasticity) rat model, and the incubation period from NMDA injection to spasticity was recorded. […] After the second injection of SEQ ID NO.4 for 30 minutes (i.e. 15:30 pm), NMDA (15 mg/kg) was intraperitoneally injected to establish infant spasticity rat model, and the incubation period from NMDA injection to spasticity was recorded.

hERG = hERG (Homo sapiens, UniProt Q12809); assay: in vitro; details: human
Sequence of hERG (Q12809 whole entry): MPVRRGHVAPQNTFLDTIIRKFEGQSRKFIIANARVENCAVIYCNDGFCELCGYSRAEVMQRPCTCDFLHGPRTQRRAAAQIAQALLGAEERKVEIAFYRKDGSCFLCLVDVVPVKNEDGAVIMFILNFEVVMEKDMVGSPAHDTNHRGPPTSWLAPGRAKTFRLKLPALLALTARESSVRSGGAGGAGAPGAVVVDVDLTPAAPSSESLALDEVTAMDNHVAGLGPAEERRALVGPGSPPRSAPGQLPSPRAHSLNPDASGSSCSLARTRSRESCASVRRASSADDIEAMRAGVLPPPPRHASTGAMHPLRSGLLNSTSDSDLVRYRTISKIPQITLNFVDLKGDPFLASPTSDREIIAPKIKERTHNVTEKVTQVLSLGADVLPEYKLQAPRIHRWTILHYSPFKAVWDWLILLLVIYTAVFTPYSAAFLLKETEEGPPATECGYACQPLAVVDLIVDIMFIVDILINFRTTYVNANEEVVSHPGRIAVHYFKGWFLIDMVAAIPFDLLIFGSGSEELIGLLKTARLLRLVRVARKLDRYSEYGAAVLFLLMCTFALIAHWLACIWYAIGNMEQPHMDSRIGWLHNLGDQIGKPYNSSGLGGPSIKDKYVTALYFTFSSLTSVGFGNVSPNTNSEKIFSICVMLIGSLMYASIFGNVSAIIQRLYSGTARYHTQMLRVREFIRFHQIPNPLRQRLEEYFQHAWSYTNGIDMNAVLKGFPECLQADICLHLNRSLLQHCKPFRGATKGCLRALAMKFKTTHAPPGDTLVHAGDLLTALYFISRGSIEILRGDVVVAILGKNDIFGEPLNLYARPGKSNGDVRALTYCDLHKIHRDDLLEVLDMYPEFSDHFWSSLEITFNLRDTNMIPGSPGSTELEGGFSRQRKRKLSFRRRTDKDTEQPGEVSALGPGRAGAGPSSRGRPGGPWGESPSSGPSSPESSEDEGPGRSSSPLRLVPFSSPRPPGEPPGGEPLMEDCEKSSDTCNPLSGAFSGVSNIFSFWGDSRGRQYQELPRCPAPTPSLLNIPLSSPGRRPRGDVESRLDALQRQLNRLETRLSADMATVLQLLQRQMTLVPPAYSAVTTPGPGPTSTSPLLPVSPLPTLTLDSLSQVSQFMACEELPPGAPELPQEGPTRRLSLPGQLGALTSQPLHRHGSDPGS
Source text: (§1) The cardiac […] toxicity of drugs was judged by detecting the affinity between drugs and heart receptor protein (hERG) in vitro.

[4] = molecular target: heart receptor protein (hERG) (Homo sapiens, UniProt Q12809); assay: in vitro
Sequence of heart receptor protein (hERG) (Q12809 whole entry): as above
Source text: as §1

H-SYSMEHFRWGKPVGKKRRPVKVYPNGAEDESAEAFPLEF-OH [Example 8]
Binding ability to MC2R and biological activity (in words) [1]: had binding ability to melanocortin receptor 2 (MC2R) and showed biological activity | Bottom [1]: −2.739 | HillSlope [1]: 0.9745 | Top [1]: 100.9 | Activity of high-purity ACTH relative to low-purity ACTH ([1]; ratio of EC50 values): 1.6 times | Character (Visual) ([2]; 2-8° C., 1 month): White | Moisture, Karl Fischer ([2]; 2-8° C., 1 month): 7.3% | Polymer (impurity with molecular weight greater than the peptide), HPLC ([2]; 2-8° C., 1 month): 0.05% | Related substances (maximum single impurity), HPLC ([2]; 2-8° C., 1 month): 0.17% | Related substances (total impurities), HPLC ([2]; 2-8° C., 1 month): 0.29% | The purity of chromatographic, HPLC ([2]; 2-8° C., 1 month): 99.71% | Character (Visual) ([2]; 2-8° C., 2 months): White | Moisture, Karl Fischer ([2]; 2-8° C., 2 months): 7.5% | Polymer (impurity with molecular weight greater than the peptide), HPLC ([2]; 2-8° C., 2 months): 0.03% | Related substances (maximum single impurity), HPLC ([2]; 2-8° C., 2 months): 0.17% | Related substances (total impurities), HPLC ([2]; 2-8° C., 2 months): 0.29% | The purity of chromatographic, HPLC ([2]; 2-8° C., 2 months): 99.71% | Character (Visual) ([2]; 2-8° C., 3 months): White | Moisture, Karl Fischer ([2]; 2-8° C., 3 months): 8.4% | Polymer (impurity with molecular weight greater than the peptide), HPLC ([2]; 2-8° C., 3 months): 0.06% | Related substances (maximum single impurity), HPLC ([2]; 2-8° C., 3 months): 0.16% | Related substances (total impurities), HPLC ([2]; 2-8° C., 3 months): 0.38% | The purity of chromatographic, HPLC ([2]; 2-8° C., 3 months): 99.62% | Character (Visual) ([2]; 2-8° C., 6 months): White | Moisture, Karl Fischer ([2]; 2-8° C., 6 months): 8.3% | Polymer (impurity with molecular weight greater than the peptide), HPLC ([2]; 2-8° C., 6 months): 0.04% | Related substances (maximum single impurity), HPLC ([2]; 2-8° C., 6 months): 0.11% | Related substances (total impurities), HPLC ([2]; 2-8° C., 6 months): 0.39% | The purity of chromatographic, HPLC ([2]; 2-8° C., 6 months): 99.61% | Conclusion: Character ([2]; 2-8° C.): Qualified | Conclusion: Moisture ([2]; 2-8° C.): Qualified | Conclusion: Polymer ([2]; 2-8° C.): Qualified | Conclusion: Related substances (maximum single impurity) ([2]; 2-8° C.): Qualified | Conclusion: The purity of chromatographic ([2]; 2-8° C.): Qualified | Character (Visual) ([2]; Start): White | Moisture, Karl Fischer ([2]; Start): 5.0% | Polymer (impurity with molecular weight greater than the peptide), HPLC ([2]; Start): 0.03% | Related substances (maximum single impurity), HPLC ([2]; Start): 0.07% | Related substances (total impurities), HPLC ([2]; Start): 0.13% | The purity of chromatographic, HPLC ([2]; Start): 99.88%

SYSMEHFRWGKPVGKKRRPVKVYPDGAEDESAEAFPLEF (also: deamidated at N25 (given as D), Asp or isoAsp not given here) [Example 9]
Incubation period of spasticity vs IS group ([3]; high-dose group 0.28 U/g i.p. twice, neonatal rats day 15, P<0.0001): significantly prolong | Incubation period of spasticity vs IS group ([3]; low-dose group 0.01 U/g i.p. twice, neonatal rats day 15, p<0.001): significantly prolong | Character (Visual) ([2]; 2-8° C., 1 month): White | Moisture, Karl Fischer ([2]; 2-8° C., 1 month): 7.5% | Polymer (impurity with molecular weight greater than the peptide), HPLC ([2]; 2-8° C., 1 month): 0.04% | Related substances (maximum single impurity), HPLC ([2]; 2-8° C., 1 month): 0.24% | Related substances (total impurities), HPLC ([2]; 2-8° C., 1 month): 0.42% | The purity of chromatographic, HPLC ([2]; 2-8° C., 1 month): 99.58% | Character (Visual) ([2]; 2-8° C., 2 months): White | Moisture, Karl Fischer ([2]; 2-8° C., 2 months): 7.6% | Polymer (impurity with molecular weight greater than the peptide), HPLC ([2]; 2-8° C., 2 months): 0.05% | Related substances (maximum single impurity), HPLC ([2]; 2-8° C., 2 months): 0.17% | Related substances (total impurities), HPLC ([2]; 2-8° C., 2 months): 0.43% | The purity of chromatographic, HPLC ([2]; 2-8° C., 2 months): 99.57% | Character (Visual) ([2]; 2-8° C., 3 months): White | Moisture, Karl Fischer ([2]; 2-8° C., 3 months): 8.5% | Polymer (impurity with molecular weight greater than the peptide), HPLC ([2]; 2-8° C., 3 months): 0.06% | Related substances (maximum single impurity), HPLC ([2]; 2-8° C., 3 months): 0.27% | Related substances (total impurities), HPLC ([2]; 2-8° C., 3 months): 0.46% | The purity of chromatographic, HPLC ([2]; 2-8° C., 3 months): 99.54% | Character (Visual) ([2]; 2-8° C., 6 months): White | Moisture, Karl Fischer ([2]; 2-8° C., 6 months): 8.6% | Polymer (impurity with molecular weight greater than the peptide), HPLC ([2]; 2-8° C., 6 months): 0.06% | Related substances (maximum single impurity), HPLC ([2]; 2-8° C., 6 months): 0.10% | Related substances (total impurities), HPLC ([2]; 2-8° C., 6 months): 0.49% | Stability under the storage condition (in words) ([2]; 2-8° C., 6 months): stable | The purity of chromatographic, HPLC ([2]; 2-8° C., 6 months): 99.51% | Conclusion: Character ([2]; 2-8° C.): Qualified | Conclusion: Moisture ([2]; 2-8° C.): Qualified | Conclusion: Polymer ([2]; 2-8° C.): Qualified | Conclusion: Related substances (maximum single impurity) ([2]; 2-8° C.): Qualified | Conclusion: The purity of chromatographic ([2]; 2-8° C.): Qualified | Character (Visual) ([2]; Start): White | Moisture, Karl Fischer ([2]; Start): 5.2% | Polymer (impurity with molecular weight greater than the peptide), HPLC ([2]; Start): 0.03% | Related substances (maximum single impurity), HPLC ([2]; Start): 0.16% | Related substances (total impurities), HPLC ([2]; Start): 0.42% | The purity of chromatographic, HPLC ([2]; Start): 99.58%

SYSMEHFRWGKPVGKKRRPVKVYPNGAEDESAEAFPLEF [Example 8]
EC50 [1]: 180 nM | inhibition at 10000 nM (hERG): -1.28% | Cardiac metabolic toxicity (in words) [4]: no cardiac metabolic toxicity | IC50 [4]: > 10 µM | Stability under the storage condition (in words) ([2]; 2-8° C., 6 months): stable

H-SYSMEHFRWGKPVGKKRRPVKVYPNGAEDESAEAFPLEF-OH [Example 10, reference compound]
Binding ability to MC2R and biological activity (in words) [1]: had binding ability to melanocortin receptor 2 (MC2R) and showed biological activity | Bottom [1]: −1.846 | HillSlope [1]: 1.249 | Top [1]: 94.88

SYSMEHFRWGKPVGKKRRPVKVYPNGAEDESAEAFPLEF [Example 10, reference compound]
EC50 [1]: 288 nM | Cardiac metabolic toxicity (in words) [4]: no cardiac metabolic toxicity
